Measured values published in patent publication US6413971B1, “Fused bicyclic pyrimidine derivatives” (Pfizer Inc, priority 1996, dated 2002).
Where a name gives a salt, the structure may show the parent alone.

Row | SMILES | melting point
1 | Cc1cc2c(N3CCc4c(Br)ccc(C)c43)ncnc2cn1.Cl | 232 to 244 °C
2 | Cc1cc2c(N3CCc4ccc(Br)c(C)c43)ncnc2cn1.Cl | 212 to 229 °C
3 | Cc1cc2c(N3CCc4cc(F)c(Br)cc43)ncnc2cn1.Cl | 262 to 264 °C
4 | Oc1cc2ncnc(N3CCc4ccc(Cl)cc43)c2[nH]1 [Example 10, 4-(6Chloro-2,3dihydro-indol-1-yl)-5H-pyrrolo[3,2-d]pyrimidin-6-ol] | 250 °C (dec.)
5 | Cc1cc2c(N3CCc4ccc(Cl)cc43)ncnc2cn1 [Example 16, 4-(6Chloro-2,3-dihydro-indol-1-yl)-6methyl-pyrido[3,4-d]pyrimidine] | 232 to 234 °C

Other lines, results leading:

Row | melting point | SMILES
6 | 233 to 235 °C | C#Cc1cccc(Nc2ncnc3cnccc23)c1 (as salt: hydrochloride) [Example 24, (3-Ethynyl-phenyl)-pyrido[3,4-d]pyrimidin-4-yl-amine]
7 | 280 to 282 °C | c1cc2c(Nc3ccc4sccc4c3)ncnc2cn1 (as salt: hydrochloride) [Example 25, Benzo[b]thiophen-5-yl-pyrido[3,4-d]pyrimidin-4-yl-amine]
8 | 194 to 196 °C | Clc1ccc2c(c1)N(c1ncnc3cnccc13)CC2 [Example 5, 4-(6-Chloro-2,3dihydro-indol-1-yl)-pyrido[3,4-d]pyrimidine]
9 | 240 to 241 °C | C#Cc1cccc(Nc2ncnc3c2ccn3CCOCCOC)c1 [Example 13, (3-Ethynyl-phenyl)-{7-[2-(2-methoxy-ethoxy)-ethyl]-7H-pyrrolo[2,3-d]pyrimidin4-yl}amine]
10 | 230 to 232 °C | C#Cc1cccc(Nc2ncnc3[nH]cc(-c4cccs4)c23)c1 [Example 27, (3-Ethynyl-phenyl)-(5-thiophen-2-yl-7H-pyrrolo[2,3-d]pyrimidin4-yl]-amine]
